From ChEMBL document CHEMBL1201862, “PubChem BioAssay data set” (2004)
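Growth conditions: 96-well plates. Treatment: test compound, 48 hours, 5 concentrations. Analysis: linear interpolation between bracketing concentrations; unreached endpoints set to highest concentration. GI50 is the concentration that inhibits growth by half.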 Active and inactive are the calls of the source. Rule as the data show it: active = GI50 up to about 1.1 µM and inactive = higher.

How the values were obtained:
Experiment in all cases: DTP human tumour cell line panel, 48 h
A549 = test system: A549
CAKI-1 = test system: CAKI-1
CCRF-CEM = test system: CCRF-CEM
EKVX = test system: EKVX
HCC 2998 = test system: HCC 2998
HL-60 = test system: HL-60
MDA-N = test system: MDA-N
Malme-3M = test system: Malme-3M
NCI-H460 = test system: NCI-H460
NCI-H522 = test system: NCI-H522
OVCAR-5 = test system: OVCAR-5
OVCAR-8 = test system: OVCAR-8
SF-539 = test system: SF-539
SN12C = test system: SN12C
SNB-75 = test system: SNB-75
U-251 = test system: U-251
SK-MEL-2 = test system: SK-MEL-2
T47D = test system: T47D
MDA-MB-435 = test system: MDA-MB-435

Structure (SMILES)	GI50 (A549)	GI50 (CAKI-1)	GI50 (CCRF-CEM)	GI50 (EKVX)	GI50 (HCC 2998)	GI50 (HL-60)	GI50 (MDA-N)	GI50 (Malme-3M)	GI50 (NCI-H460)	GI50 (NCI-H522)	GI50 (OVCAR-5)	GI50 (OVCAR-8)	GI50 (SF-539)	GI50 (SN12C)	GI50 (SNB-75)	GI50 (U-251)	GI50 (SK-MEL-2)	GI50 (T47D)	GI50 (MDA-MB-435)
COc1cccc(C=C(C#N)C#N)c1OC	> 100 µM (inactive)	> 100 µM (inactive)	83.6 µM (inactive)	> 100 µM (inactive)	> 100 µM (inactive)	85.9 µM (inactive)	> 100 µM (inactive)	> 100 µM (inactive)	> 100 µM (inactive)	> 100 µM (inactive)	> 100 µM (inactive)	> 100 µM (inactive)	> 100 µM (inactive)	> 100 µM (inactive)	43.2 µM (inactive)	> 100 µM (inactive)			
COC1CC(Br)(C#N)C1 (stereo not drawn)	> 100 µM (inactive)	> 100 µM (inactive)		> 100 µM (inactive)	> 100 µM (inactive)	> 100 µM (inactive)		> 100 µM (inactive)			> 100 µM (inactive)	> 100 µM (inactive)	> 100 µM (inactive)			> 100 µM (inactive)	> 100 µM (inactive)		
O=C1C(Cl)=C(OCCCCl)C(=O)c2c(O)ccc(O)c21	6.4 µM (inactive)	1.21 µM (inactive)	0.0316 µM (active)	17.7 µM (inactive)	14.8 µM (inactive)	0.0715 µM (active)	1.52 µM (inactive)	1.74 µM (inactive)	6.61 µM (inactive)		12.4 µM (inactive)	7.06 µM (inactive)	3.01 µM (inactive)	2.26 µM (inactive)	2 µM (inactive)	5.9 µM (inactive)		2.34 µM (inactive)	
COc1ccc(/C=C2\C(=O)N(C(=O)c3ccc(NC(C)=O)cc3)N=C2C)cc1	> 100 µM (inactive)	> 100 µM (inactive)	> 100 µM (inactive)	> 100 µM (inactive)	> 100 µM (inactive)	> 100 µM (inactive)		> 100 µM (inactive)	> 100 µM (inactive)	> 100 µM (inactive)	> 100 µM (inactive)	> 100 µM (inactive)	> 100 µM (inactive)	> 100 µM (inactive)	> 100 µM (inactive)		> 100 µM (inactive)		
CCOC(=O)C1(C/C=C/CBr)CCc2ccccc2C1=O (stereo not drawn)	14 µM (inactive)	15.1 µM (inactive)	5.25 µM (inactive)	27.5 µM (inactive)		6.3 µM (inactive)	14.4 µM (inactive)	19.1 µM (inactive)		12.6 µM (inactive)	29 µM (inactive)	15.7 µM (inactive)	18.1 µM (inactive)	15.1 µM (inactive)	10.4 µM (inactive)	14.1 µM (inactive)	14.1 µM (inactive)	14.3 µM (inactive)	14.3 µM (inactive)
CCOC(=O)/C(=C\NC(C)(C)C)c1nc2ccccc2o1	42.4 µM (inactive)	60.4 µM (inactive)	16.3 µM (inactive)	> 100 µM (inactive)		2.42 µM (inactive)	32 µM (inactive)	35.7 µM (inactive)	25.7 µM (inactive)	29.6 µM (inactive)	60 µM (inactive)	39 µM (inactive)	47.4 µM (inactive)	50.1 µM (inactive)	31.9 µM (inactive)				33.3 µM (inactive)
CC(=O)OC(/C=C/c1ccccc1)=C(OC(C)C)/C1=C(\c2ccccc2)SCCCSC1=O	> 100 µM (inactive)	> 100 µM (inactive)	91 µM (inactive)	53.2 µM (inactive)	> 100 µM (inactive)	49.8 µM (inactive)		> 100 µM (inactive)	> 100 µM (inactive)		> 100 µM (inactive)	> 100 µM (inactive)	> 100 µM (inactive)		52.6 µM (inactive)	> 100 µM (inactive)	> 100 µM (inactive)		> 100 µM (inactive)
N#CSC1CCCCNC1=O (stereo not drawn)	15.1 µM (inactive)	11.8 µM (inactive)	5.55 µM (inactive)	17.9 µM (inactive)	16.4 µM (inactive)	23.9 µM (inactive)		14.4 µM (inactive)	12.5 µM (inactive)	8.09 µM (inactive)	2 µM (inactive)	14.7 µM (inactive)	12.7 µM (inactive)	14.3 µM (inactive)		11.2 µM (inactive)	11.4 µM (inactive)	13 µM (inactive)	13.9 µM (inactive)
C(=C\c1ccco1)/c1cccc(/C=C/c2ccco2)n1	> 50 µM (inactive)	> 50 µM (inactive)	> 50 µM (inactive)	> 50 µM (inactive)	> 50 µM (inactive)	> 50 µM (inactive)	> 50 µM (inactive)	> 50 µM (inactive)	> 50 µM (inactive)	> 50 µM (inactive)	> 50 µM (inactive)	> 50 µM (inactive)	> 50 µM (inactive)	> 50 µM (inactive)	13.2 µM (inactive)				> 50 µM (inactive)
